Laboratory results published in patent publication US11976083B2, “Inhibitors of peptidylarginine deiminases” (Gilead Sciences, Inc., priority 2020, dated 2024).
pIC50: −log10 of the molar value.

Each compound was assayed against T1, human PAD4 (Homo sapiens, UniProt Q9UM07) (assay: In vitro PAD4 BAEE biochemical assay). Details: BAEE substrate 3 mM, 5 nM PAD4, 2 mM calcium chloride; geometric mean of multiple experiments.
T1 construct: human PAD4 (NM_012387), A2-P663, was PCR amplified; His-SUMO (N, cleaved yes); made in house; host or cells: E. coli BL21(DE3)
T1 sequence (Q9UM07 2-663): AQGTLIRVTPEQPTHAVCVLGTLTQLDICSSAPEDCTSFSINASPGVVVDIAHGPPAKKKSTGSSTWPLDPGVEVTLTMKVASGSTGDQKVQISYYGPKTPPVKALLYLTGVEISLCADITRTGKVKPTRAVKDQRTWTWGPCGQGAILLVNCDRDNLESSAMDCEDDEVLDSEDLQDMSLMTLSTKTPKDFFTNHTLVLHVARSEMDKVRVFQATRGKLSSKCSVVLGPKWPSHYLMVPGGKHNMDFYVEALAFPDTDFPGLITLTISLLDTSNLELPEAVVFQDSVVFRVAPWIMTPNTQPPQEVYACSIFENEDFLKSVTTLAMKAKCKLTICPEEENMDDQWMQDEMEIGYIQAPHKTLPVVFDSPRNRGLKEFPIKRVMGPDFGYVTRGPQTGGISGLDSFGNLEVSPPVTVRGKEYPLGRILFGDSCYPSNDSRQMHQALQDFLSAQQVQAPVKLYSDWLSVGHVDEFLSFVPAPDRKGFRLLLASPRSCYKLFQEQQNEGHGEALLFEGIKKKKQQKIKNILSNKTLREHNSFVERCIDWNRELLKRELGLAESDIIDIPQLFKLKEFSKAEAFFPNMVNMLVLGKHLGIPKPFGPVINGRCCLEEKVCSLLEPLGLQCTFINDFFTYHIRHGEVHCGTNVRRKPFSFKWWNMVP
Text: In Vitro PAD4 BAEE Biochemical Assay
The enzymatic activity of human PAD4 was monitored in a biochemical assay in the presence or absence of compounds using the small peptidyl arginine mimic BAEE (Na-Benzoyl-L-arginine ethyl ester hydrochloride) as substrate. PAD4 activity led to deimination of BAEE and release of ammonia. Levels of ammonia were monitored by using an amine coupling reaction and were indicative of PAD4 enzymatic activity.
One hundred nanoliters of test compounds dissolved in DMSO at various concentrations were dispensed into a 384-well black OptiPlate using a Labcyte Echo instrument. Ten microliters of a solution of recombinant PAD4 and calcium chloride diluted in PAD4 assay buffer (50 mM MOPS [3-(N-morpholino) propanesulfonic acid], pH 7.6; 50 mM sodium chloride; 0.05% Tween-20; 2 mM dithiothreitol) was added to the compound-containing plate and was incubated for 30 minutes at 25° C. Ten microliters of a solution of BAEE (Sigma-Aldrich #B4500) diluted in PAD4 assay buffer was then added to start the reaction. Final concentrations were 5 nM PAD4, 2 mM calcium chloride, and 3 mM BAEE. The reaction mixture was incubated at 25° C. for 2 hours and was stopped with the addition of 10 microliters of a solution of 75 mM EDTA (Ethylenediaminetetraacetic acid) in PAD4 assay buffer. Thirty microliters of detection solution (5 mM o-phthalaldehyde, 50 mM MOPS [3-(N-morpholino) propanesulfonic acid], pH 7.6; 50 mM sodium chloride; 0.05% Tween-20; 5 mM dithiothreitol) was then added and the reaction was incubated for 1 hour at 25° C. The level of fluorescent thiol-substituted isoindole resulting from the reaction of ammonia, o-phthalaldehyde, and dithiothreitol was measured on an Envision plate reader (PerkinElmer) with 405 nm excitation and 535 nm emission.
Data were normalized based on maximum inhibition (50 micromolar of the covalent PAD inhibitor BB-Cl-Amidine (Bicker, K. L.; Anguish, L.; Chumanevich, A. A.; Cameron, M. D.; Cui, X.; Witalison, E.; Subramanian, V.; Zhang, X.; Chumanevich, A. P.; Hofseth, L. J.; Coonrod, S. A.; Thompson, P. R. ACS Med. Chem. Lett. 2012, 3, 1081-1085). and no inhibition (DMSO) controls. Least squares curve fittings were performed using a four-parameter variable slope nonlinear regression model. IC50 is defined as the concentration of compound required to inhibit 50% of maximum activity. IC50 values from multiple experiments were averaged by geometric mean and the standard deviation was calculated.

SMILES | pIC50
C[C@H]1NC(=O)[C@@H]2C[C@H]2CCCCCn2c(-c3nc4cc(C(=O)N[C@H]5CNCC[C@@H]5F)c(F)cc4n3[C@H]3C[C@H]3C(F)F)cc3ccc1nc32 (single isomer, unassigned) [Example 412, 1-[(1~{S},2~{R})-2-(difluoromethyl)cyclopropyl]-6-fluoro-~ {N}-[(3~{S),4~{S})-4-fluoro-3-piperidyl]-2-[(2~{R},5~{R},7~{R})-2-methyl-4-oxo-3,13,19-triazatetracyclo[11.5.2.0^{5,7}.0^{16,20}]icosa-1(19),14,16(20),17-tetraen-14-yl]benzimidazole-5-carboxamide] | 7.38
C[C@H]1NC(=O)[C@@H]2C[C@H]2CCCC(F)(F)Cn2c(-c3nc4cc(C(=O)N5C[C@H](N)[C@@H]6CC[C@H]5C6)cc(F)c4n3[C@H]3C[C@@H]3C(F)F)cc3ccc1nc32 (single isomer, unassigned) [Example 453, (2~{R},5~{R},7~{R})-14-[5-[(1~{S},4~{R},5~{R})-4-amino-2-azabicyclo[3.2.1]octane-2-carbonyl]-1-[(1~{S},2~{S})-2-(difluoromethyl)cyclopropyl]-7-fluoro-benzimidazol-2-yl]-11,11-difluoro-2-methyl-3,13,19-triazatetracyclo[11.5.2.0^{5,7}.0^{16,20}] icosa-1(19),14,16(20),17-tetraen-4-one] | 7.28
COc1cc(C(=O)N[C@H]2CNCC[C@@H]2F)cc2nc(-c3cc4ccc5nc4n3CCCCC[C@H]3CC[C@@H]3C(=O)N[C@@H]5C)n(C)c12 (single isomer, unassigned) [Example 486, ˜{N}-[(3˜{S},4˜{S})-4-fluoro-3-piperidyl]-7-methoxy-1-methyl-2-[(2˜{R},5˜{S},8˜{S})-2-methyl-4-oxo-3,14,20-triazatetracyclo[12.5.2.0^{5,8}.0^{17,21}]henicosa-1(20),15,17(21),18-tetraen-15-yl]benzimidazole-5-carboxamide] | 6.96
COc1cc(C(=O)N[C@H]2CNCC[C@@H]2F)cc2nc(-c3cc4ccc5nc4n3CCCCC[C@@H]3CC[C@H]3C(=O)N[C@@H]5C)n(C)c12 (single isomer, unassigned) [Example 487, ˜{N}-[(3˜{S},4˜{S})-4-fluoro-3-piperidyl]-7-methoxy-1-methyl-2-[(2˜{R},5˜{R},8˜{R})-2-methyl-4-oxo-3,14,20-triazatetracyclo[12.5.2.0^{5,8}.0^{17,21}]henicosa-1(20),15,17(21),18-tetraen-15-yl]benzimidazole-5-carboxamide] | 7.09
COc1cc(C(=O)N2C[C@H](N)[C@@H]3CC[C@H]2C3)cc2nc(-c3cc4ccc5nc4n3CCCCCC[C@@](F)(c3ccccn3)C(=O)N[C@@H]5C)n(C3CC3)c12 (single isomer, unassigned) [Example 944, (8˜{R},11˜{R})-17-[5-[(1˜{S},4˜{R},5˜{R})-4-amino-2-azabicyclo[3.2.1]octane-2-carbonyl]-1-cyclopropyl-7-methoxy-benzimidazol-2-yl]-8-fluoro-11-methyl-8-(2-pyridyl)-1,10,19-triazatricyclo[10.5.2.0^{15,18}]nonadeca-12(19),13,15(18),16-tetraen-9-one] | 7.19
COc1cc(C(=O)N2C[C@H](N)[C@@H]3CC[C@H]2C3)cc2nc(-c3cc4ccc5nc4n3CCCCCC[C@](F)(c3ccccn3)C(=O)N[C@@H]5C)n(C3CC3)c12 (single isomer, unassigned) [Example 945, (8˜{S},11˜{R})-17-[5-[(1˜{S},4˜{R},5˜{R})-4-amino-2-azabicyclo[3.2.1]octane-2-carbonyl]-1-cyclopropyl-7-methoxy-benzimidazol-2-yl]-8-fluoro-11-methyl-8-(2-pyridyl)-1,10,19-triazatricyclo[10.5.2.0^{15,18}]nonadeca-12(19),13,15(18),16-tetraen-9-one] | 7.47
COc1cc(C(=O)N2CCC[C@@H](N)C2)cc2nc(-c3cc4ccc5nc4n3CCCCCC[C@@](C)(C(F)(F)F)C(=O)N[C@@H]5C)n(C)c12 [Example 1, (8~{R},11~{R})-17-[5-[(3~{R})-3-aminopiperidine-1-carbonyl]-7-methoxy-1-methyl-benzimidazol-2-yl]-8,11-dimethyl-8-(trifluoromethyl)-1,10,19-triazatricyclo[10.5.2.0^{15,18}]nonadeca-12(19),13,15(18),16-tetraen-9-one] | 6.98
COc1cc(C(=O)N2CCC[C@@H](N)C2)cc2nc(-c3cc4ccc5nc4n3CCCCCC[C@](C)(C(F)(F)F)C(=O)N[C@@H]5C)n(C)c12 [Example 4, (8~{S},11~{R})-17-[5-[(3~{R})-3-aminopiperidine-1-carbonyl]-7-methoxy-1-methyl-benzimidazol-2-yl]-8,11-dimethyl-8-(trifluoromethyl)-1,10,19-triazatricyclo[10.5.2.0^{15,18}]nonadeca-12(19),13,15(18),16-tetraen-9-one] | 7.16
COc1cc(C(=O)N2C[C@H](N)CC[C@@H]2C)cc2nc(-c3cc4ccc5nc4n3CCCCCCC(C)(C)C(=O)N[C@@H]5C)n(C)c12 [Example 5, (11~{R})-17-[5-[(2~{S},5~{R})-5-amino-2-methyl-piperidine-1-carbonyl]-7-methoxy-1-methyl-benzimidazol-2-yl]-8,8,11-trimethyl-1,10,19-triazatricyclo[10.5.2.0^{15,18}]nonadeca-12(19),13,15(18),16-tetraen-9-one] | 7.12
COc1cc(C(=O)N2CC[C@@H](OC(F)F)[C@@H](N)C2)cc2nc(-c3cc4ccc5nc4n3CCCCC[C@@H]3C[C@H]3C(=O)N[C@@H]5C)n(C)c12 [Example 6, (2~{R),5~{R},7~{R})-14-[5-[(3~{S},4~{R})-3-amino-4-(difluoromethoxy)piperidine-1-carbonyl]-7-methoxy-1-methyl-benzimidazol-2-yl]-2-methyl-3,13,19-triazatetracyclo[11.5.2.0^{5,7}.0^{16,20}] icosa-1(19),14,16(20),17-tetraen-4-one] | 6.98
COc1cc(C(=O)N2CC[C@@H](OC(F)F)[C@@H](N)C2)cc2nc(-c3cc4ccc5nc4n3CCCCCc3nccnc3C(=O)N[C@@H]5C)n(C)c12 [Example 7, (2~{R})-17-[5-[(3~{S},4~{R})-3-amino-4-(difluoromethoxy)piperidine-1-carbonyl]-7-methoxy-1-methyl-benzimidazol-2-yl]-2-methyl-3,6,9,16,22-pentazatetracyclo[14.5.2.0^{5,10}.0^{19, 23}]tricosa-1(22),5(10),6,8,17,19(23),20-heptaen-4-one] | 7.00
COc1cc(C(=O)N2[C@H]3CC[C@@H]2[C@H](N)C3)cc2nc(-c3cc4ccc5nc4n3C[C@H]3CC[C@H]3COCCC(=O)N[C@@H]5C)c(C)n12 [Example 8, (3~{S},6~{R},13~{R})-19-[7-[(1~{R},2~{R},4~{S})-2-amino-7-azabicyclo[2.2.1]heptane-7-carbonyl]-5-methoxy-3-methyl-imidazo[1,2-a]pyridin-2-yl]-13-methyl-8-oxa-1,12,21-triazatetracyclo[12.5.2.0^{3,6}.0^{17,20}] henicosa-14(21),15,17(20),18-tetraen-11-one] | 7.15
COc1cc(C(=O)N2[C@H]3CC[C@@H]2[C@H](N)C3)cc2nc(-c3cc4ccc5nc4n3C[C@@H]3CC[C@@H]3COCCC(=O)N[C@@H]5C)c(C)n12 [Example 9, (3~{R},6~{S},13~{R})-19-[7-[(1~{R},2~{R},4~{S})-2-amino-7-azabicyclo[2.2.1]heptane-7-carbonyl]-5-methoxy-3-methyl-imidazo[1,2-a]pyridin-2-yl]-13-methyl-8-oxa-1,12,21-triazatetracyclo[12.5.2.0^{3,6}.0^{17,20}] henicosa-14(21),15,17(20),18-tetraen-11-one] | 7.28
COc1cc(C(=O)N2[C@H]3CC[C@@H]2[C@H](N)C3)cc2nc(-c3cc4ccc5nc4n3CCCCCC[C@@](C)(C(F)(F)F)C(=O)N[C@@H]5C)n(C)c12 [Example 12, (8~{R},11~{R})-17-[5-[(1~{R},2~{R},4~{S})-2-amino-7-azabicyclo[2.2.1]heptane-7-carbonyl]-7-methoxy-1-methyl-benzimidazol-2-yl]-8,11-dimethyl-8-(trifluoromethyl)-1,10,19-triazatricyclo[10.5.2.0^{15,18}]nonadeca-12(19),13,15(18),16-tetraen-9-one] | 6.92
